Test results taken from ChEMBL document CHEMBL1149973, “Inhibitory stereochemistry of N-chloroacetyl-N-hydroxyleucine methyl ester for thermolysin” (Bioorg Med Chem Lett, 1996).

Tests used:
[1] = target: T1, Thermolysin (Bacillus thermoproteolyticus) (UniProt P00800); assay: Inhibitory activity against thermolysin expressed as kinact
T1 sequence (whole entry): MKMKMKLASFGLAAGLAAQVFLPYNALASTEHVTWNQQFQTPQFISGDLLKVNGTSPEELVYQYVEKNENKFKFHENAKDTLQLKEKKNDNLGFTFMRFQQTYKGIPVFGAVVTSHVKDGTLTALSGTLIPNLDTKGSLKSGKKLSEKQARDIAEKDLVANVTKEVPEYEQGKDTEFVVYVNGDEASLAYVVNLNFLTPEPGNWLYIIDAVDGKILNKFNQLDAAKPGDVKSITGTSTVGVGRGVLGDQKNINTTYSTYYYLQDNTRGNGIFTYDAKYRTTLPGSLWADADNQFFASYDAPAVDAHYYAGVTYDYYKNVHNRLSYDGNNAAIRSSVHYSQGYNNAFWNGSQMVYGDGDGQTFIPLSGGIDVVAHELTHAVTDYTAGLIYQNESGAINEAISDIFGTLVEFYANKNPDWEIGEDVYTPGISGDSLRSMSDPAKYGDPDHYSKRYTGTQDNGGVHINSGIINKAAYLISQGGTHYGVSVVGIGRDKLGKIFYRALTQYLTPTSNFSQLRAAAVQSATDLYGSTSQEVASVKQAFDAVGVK

Thermolysin = target: T2, Thermolysin (Bacillus thermoproteolyticus, UniProt P00800); assay: Inhibitory activity against thermolysin expressed as Ki
T2 sequence (P00800 whole entry): T1 sequence (whole entry)

K inact [1] [s⁻¹] | Ki (Thermolysin) [mM] | Compound
0.009 | 4.5 | COC(=O)[C@H](CC(C)C)N(O)C(=O)CCl
0.0075 | 7.5 | COC(=O)C(CC(C)C)N(O)C(=O)CCl (centres undefined)
